{
  "source": "patent US6030960A",
  "about": "“Method of treating hepatitis virus infections” (priority 1998, dated 2000)",
  "assay_type_in_all_cases": "cell-based",
  "key": {"[1]": {"assay": "Cytotoxicity of alkyl lipids, neutral red dye uptake (Table 1)", "conditions": "human, hep-g2 cells", "description": "(§1) Initially, evaluations of the alkyl lipids were done to determine whether the compounds were cytotoxic to the cells at concentrations having anti-HBV activity. The assay methodology is szt forth in Korba and Germ, Antiviral Res., 19, 55-70 (1992), incorporated by reference herein. Briefly, these cell cytotoxicity evaluations were done in 96-well plates seeded with HEP-G2 cell monolayers. The hepatoblastoma cell line HEP-G2 transfected with a plasmid carrying the gene that confers resistance to […] and four 5'-3' tandem copies of the Hepatitis B virus genome was obtained from Dr. George Acs. Proc. Natl. Acad. Sci. USA, 84, 1005-1009 (1987). Serial concentrations of compound were added to the RPMI-1640 growth medium and the growth medium was added to the 96-well plates containing the cell monolayers. The cells were incubated for a total of nine days at 37° C. The compound-containing medium was periodically replaced. Each compound was tested at four serial concentrations in triplicate. After nine days of treatment and incubation, 0.01% neutral red dye (Sigma, Inc.) was added to the overlay medium. Cell cytotoxicity was quantitated by measuring the average A510. Values in Table 1 represent the percentage of average A510 values (±standard deviation) relative to nine non-treated control wells."}, "Hepatitis B virus [2]": {"test_system": "Hepatitis B virus", "assay": "Anti-hepatitis B virus activity in HEP-G2 cells persistently infected with HBV (Table 2)", "conditions": "Hepatitis B virus, HepG2, 216 h, 10 μM, 9 days treatment", "method": "HEP-G2 cells persistently infected with HBV were treated daily with fresh D-MEM containing 20% FBS and 10 μM compound. After 9 days incubation and treatment, the overlay medium was harvested to assay the quantity of Hepatitis B virus s antigen (HBsAg) and HBeAg by EIA (Abbott Laboratories). The overlay medium was diluted to levels of antigen in the linear range of the assay. Standard curves using dilutions of positive HBsAg and HBeAg controls were included in each assay. Virion DNA was assayed using the method set forth in Korba and Gerin, Antiviral Res., 19, 5,5-70 (1992), incorporated by reference herein. HBV DNA was extracted from the overlay medium containing virus particles and analyzed by a slot-blot hybridization technique using ^32 P-labelled 3.2 Kb Eco R1 HBV DNA fragment by comparisons to HBV standards present on nitrocellulose filters using an AMBIS beta scanner. EC90 values (90% effective concentration, i.e., drug concentration which induces a 90% decrease in the levels of HBV DNA replication intermediates in treated versus control cells) were calculated by linear regression analysis. The relative levels of HBsAg, HBeAg and virion DNA were calulated as a percentage of the average levels obtained from the untreated controls."}, "[3]": {"assay": "Cytotoxicity in HBV persistently infected human HEP G2 cells, neutral red dye uptake (Table 5)", "conditions": "human, hep-g2 cells, % of Control Neutral Red Dye Uptake", "description": "as §1\n(§2) An analysis was periormed to determine the cytotoxicity of the following compounds in human HEP-G2 cells persistently infected with HBV: CP-51, CP-49, CP-9, CP-126, lyso PAF and CP-7. 2'-3'-Dideoxycytidine (ddC) was used as a control in this cytotoxicity analysis. The toxicity analyses were performed in 96-well flat bottomed tissue culture plates following the same procedure set forth in Example 6 above. Each compound was tested at four concentrations, each in triplicate cultures. Uptake of neutral red dye was used to determine the relative level of toxicity. The absorbance of internalized dye at […] (A510) was used for the quantitative analysis.\n(§3) Values are presented as a percentage of the average A510 values (± standard deviations) in ninz separate cultures of untreated cells maintained on the same 96-well plate as the test compounds. The percentage of dye uptake in the nine control cultures was 100±1."}, "[4]": {"test_system": "HEP G2 cells persistently infected with HBV", "assay": "Cytotoxicity in HBV persistently infected human HEP G2 cells, neutral red dye uptake (Table 5)", "description": "as §1, §2, §3"}, "Hepatitis B virus [5]": {"test_system": "Hepatitis B virus", "assay": "Effect of alkyl lipids on HBV replication in HBV persistently infected human HEP G2 cells (Table 6)", "conditions": "for Intracellular HBV DNA, Mono (episomal 3.2-3.8 Kb HBV genomes) / Intracellular HBV DNA, RI (replication intermediates): nine days", "method": "Cells were treated with a particular compound for nine days at 37° C. Analysis of intracellular HEIV DNA was done 24 hours following the ninth day of treatment. […] The levels of integrated HBV DNA in each cellular DNA preparation were used to calculate the levels of episomal 3.2-3.8 Kb HBV genomes (Mono) and HBV DNA replication intermediates (RI). A zero value indicates an undetectable level of HBV virion DNA. The sensitivity cut-off was 0.1 pg DNA/ml of culture medium."}, "Hepatitis B virus [6]": {"test_system": "Hepatitis B virus", "assay": "Effect on synthesis of antigen markers in persistently infected human HEP G2 cell cultures (Table 7)", "conditions": "10 μM, nine days; for activity at 10 µM: Hepatitis B virus, HepG2, 216 h", "method": "Cells were treated with compound for nine days at 37° C. The overlay medium was harvested to measure levels of HBsAg, HBeAg and virion DNA. HBsAg and HBeAg were assayed by EIA (Abbott Laboratories). Virion DNA levels were measured as described in section B above."}, "[7]": {"conditions": "read-out: Relative Level of HBeAg"}, "[8]": {"conditions": "read-out: Relative Level of HBsAg"}, "[9]": {"conditions": "read-out: Relative Level of Virion DNA"}},
  "note": "Several values for one entry are separate records, joined by “and”; a condition that tells them apart may be missing. Identical values can stand only once.",
  "data": [
    {"smiles": "CCCCCCCCCCCCCCCCSCC(C[N+](C)(C)CCO)OC", "note": "(racemic) [CP-7, N-[rac-3-(hexadecylthio)-2-methoxy-1-propyl]-N,N-dimethyl-N-(2-hydroxyethyl) ammonium bromide]", "values": [
      {"measurement": "cytotoxicity at 216 h, 30 µM", "setting": "[1]", "result": 33, "unit": "%"},
      {"measurement": "viability at 216 h, 3 µM", "setting": "[1]", "result": "98 ± 2", "unit": "%"},
      {"measurement": "viability at 216 h, 10 µM", "setting": "[1]", "result": "102 ± 6", "unit": "%"},
      {"measurement": "viability at 216 h, 30 µM", "setting": "[1]", "result": "67 ± 3", "unit": "%"},
      {"measurement": "viability at 216 h, 100 µM", "setting": "[1]", "result": "24 ± 2", "unit": "%"},
      {"measurement": "activity at 10 µM", "setting": "Hepatitis B virus [2]; [7]", "result": 43, "unit": "%"},
      {"measurement": "activity at 10 µM", "setting": "Hepatitis B virus [2]; [8]", "result": 74, "unit": "%"},
      {"measurement": "activity at 10 µM", "setting": "Hepatitis B virus [2]; [9]", "result": 10, "unit": "%"},
      {"measurement": "viability at 216 h, 3 µM", "setting": "[3]", "result": "98 ± 2", "unit": "%"},
      {"measurement": "viability at 216 h, 10 µM", "setting": "[3]", "result": "102 ± 6", "unit": "%"},
      {"measurement": "viability at 216 h, 30 µM", "setting": "[3]", "result": "67 ± 3", "unit": "%"},
      {"measurement": "viability at 216 h, 100 µM", "setting": "[3]", "result": "24 ± 2", "unit": "%"},
      {"measurement": "Cell toxicity (greater than 50% depression of dye uptake)", "setting": "[4]", "result": "did not occur"},
      {"measurement": "HBV Virion DNA", "setting": "Hepatitis B virus [5]; 0.1 μM, Day 0", "result": "51 pg/ml Culture Medium and 77 pg/ml Culture Medium and 64 pg/ml Culture Medium"},
      {"measurement": "HBV Virion DNA", "setting": "Hepatitis B virus [5]; 0.1 μM, Day 3", "result": "72 pg/ml Culture Medium and 75 pg/ml Culture Medium and 66 pg/ml Culture Medium and 51 pg/ml Culture Medium"},
      {"measurement": "HBV Virion DNA", "setting": "Hepatitis B virus [5]; 0.1 μM, Day 6", "result": "58 pg/ml Culture Medium and 65 pg/ml Culture Medium and 98 pg/ml Culture Medium and 75 pg/ml Culture Medium"},
      {"measurement": "HBV Virion DNA", "setting": "Hepatitis B virus [5]; 0.1 μM, Day 9", "result": "57 pg/ml Culture Medium and 89 pg/ml Culture Medium and 84 pg/ml Culture Medium and 76 pg/ml Culture Medium"},
      {"measurement": "Intracellular HBV DNA, Mono (episomal 3.2-3.8 Kb HBV genomes)", "setting": "Hepatitis B virus [5]; 0.1 μM", "result": "2.5 pg/μg Cell DNA and 2.6 pg/μg Cell DNA and 2.8 pg/μg Cell DNA and 2.3 pg/μg Cell DNA"},
      {"measurement": "Intracellular HBV DNA, RI (replication intermediates)", "setting": "Hepatitis B virus [5]; 0.1 μM", "result": "73 pg/μg Cell DNA and 62 pg/μg Cell DNA and 57 pg/μg Cell DNA and 76 pg/μg Cell DNA"},
      {"measurement": "HBV Virion DNA", "setting": "Hepatitis B virus [5]; 1 μM, Day 0", "result": "53 pg/ml Culture Medium and 64 pg/ml Culture Medium and 54 pg/ml Culture Medium"},
      {"measurement": "HBV Virion DNA", "setting": "Hepatitis B virus [5]; 1 μM, Day 3", "result": "56 pg/ml Culture Medium and 51 pg/ml Culture Medium and 66 pg/ml Culture Medium and 58 pg/ml Culture Medium"},
      {"measurement": "HBV Virion DNA", "setting": "Hepatitis B virus [5]; 1 μM, Day 6", "result": "46 pg/ml Culture Medium and 52 pg/ml Culture Medium and 59 pg/ml Culture Medium"},
      {"measurement": "HBV Virion DNA", "setting": "Hepatitis B virus [5]; 1 μM, Day 9", "result": "48 pg/ml Culture Medium and 44 pg/ml Culture Medium and 49 pg/ml Culture Medium and 41 pg/ml Culture Medium"},
      {"measurement": "Intracellular HBV DNA, Mono (episomal 3.2-3.8 Kb HBV genomes)", "setting": "Hepatitis B virus [5]; 1 μM", "result": "2.7 pg/μg Cell DNA and 2.2 pg/μg Cell DNA and 2.3 pg/μg Cell DNA and 2.4 pg/μg Cell DNA"},
      {"measurement": "Intracellular HBV DNA, RI (replication intermediates)", "setting": "Hepatitis B virus [5]; 1 μM", "result": "70 pg/μg Cell DNA and 75 pg/μg Cell DNA and 63 pg/μg Cell DNA and 68 pg/μg Cell DNA"},
      {"measurement": "HBV Virion DNA", "setting": "Hepatitis B virus [5]; 10 μM, Day 0", "result": "49 pg/ml Culture Medium and 63 pg/ml Culture Medium and 70 pg/ml Culture Medium and 65 pg/ml Culture Medium"},
      {"measurement": "HBV Virion DNA", "setting": "Hepatitis B virus [5]; 10 μM, Day 3", "result": "70 pg/ml Culture Medium and 64 pg/ml Culture Medium and 67 pg/ml Culture Medium and 59 pg/ml Culture Medium"},
      {"measurement": "HBV Virion DNA", "setting": "Hepatitis B virus [5]; 10 μM, Day 6", "result": "35 pg/ml Culture Medium and 28 pg/ml Culture Medium and 33 pg/ml Culture Medium"},
      {"measurement": "HBV Virion DNA", "setting": "Hepatitis B virus [5]; 10 μM, Day 9, 0 = undetectable, cut-off 0.1 pg DNA/ml", "result": "8 pg/ml Culture Medium and 9 pg/ml Culture Medium and 7 pg/ml Culture Medium"},
      {"measurement": "Intracellular HBV DNA, Mono (episomal 3.2-3.8 Kb HBV genomes)", "setting": "Hepatitis B virus [5]; 10 μM", "result": "2.3 pg/μg Cell DNA and 2.6 pg/μg Cell DNA and 2.5 pg/μg Cell DNA"},
      {"measurement": "Intracellular HBV DNA, RI (replication intermediates)", "setting": "Hepatitis B virus [5]; 10 μM", "result": "11 pg/μg Cell DNA and 13 pg/μg Cell DNA and 10 pg/μg Cell DNA and 14 pg/μg Cell DNA"},
      {"measurement": "Relative Level of HBeAg", "setting": "Hepatitis B virus [6]; 12960 min", "result": "40 % of Untreated Control"},
      {"measurement": "Relative Level of HBsAg", "setting": "Hepatitis B virus [6]; 12960 min", "result": "69 % of Untreated Control"},
      {"measurement": "Relative Level of Virion DNA", "setting": "Hepatitis B virus [6]; 12960 min", "result": "10 % of Untreated Control"},
      {"measurement": "activity at 10 µM", "setting": "Hepatitis B virus [6]; [7]", "result": 46, "unit": "%"},
      {"measurement": "activity at 10 µM", "setting": "Hepatitis B virus [6]; [8]", "result": 79, "unit": "%"},
      {"measurement": "activity at 10 µM", "setting": "Hepatitis B virus [6]; [9]", "result": 9, "unit": "%"}
    ]}
  ]
}
